Reference: PubChem BioAssay (NCI)
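Grown in 96-well plates, cells were treated for 48 hours with each compound at five concentrations. Insufficient inhibition: endpoint recorded as highest concentration tested. Here, GI50 denotes the concentration required for 50% inhibition of growth. At the TGI there is no net growth.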

Legend:
Experiment in all cases: DTP human tumour cell line panel, 48 h
HCC-2998 colon = tested on: HCC-2998 colon
HL-60(TB) leukemia = tested on: HL-60(TB) leukemia
MOLT-4 leukemia = tested on: MOLT-4 leukemia
RPMI-8226 leukemia = tested on: RPMI-8226 leukemia
SK-MEL-28 melanoma = tested on: SK-MEL-28 melanoma
TK-10 renal = tested on: TK-10 renal
CAKI-1 renal = tested on: CAKI-1 renal
MDA-MB-231 breast = tested on: MDA-MB-231 breast

| SMILES | TGI (HCC-2998 colon) [µM] | TGI (HL-60(TB) leukemia) [µM] | TGI (MOLT-4 leukemia) [µM] | TGI (RPMI-8226 leukemia) [µM] | TGI (SK-MEL-28 melanoma) [µM] | TGI (TK-10 renal) [µM] | TGI (CAKI-1 renal) [µM] | TGI (MDA-MB-231 breast) [µM] | GI50 (CAKI-1 renal) [nM] | GI50 (HCC-2998 colon) [nM] | GI50 (MDA-MB-231 breast) [µM] | GI50 (MOLT-4 leukemia) [µM] | GI50 (RPMI-8226 leukemia) [nM] | GI50 (SK-MEL-28 melanoma) [nM] | GI50 (TK-10 renal) [nM] | GI50 (HL-60(TB) leukemia) [nM] |
| --- | --- | --- | --- | --- | --- | --- | --- | --- | --- | --- | --- | --- | --- | --- | --- | --- |
| CCc1nc(Cl)c(Cl)c(Cl)n1 | > 100 | > 100 | > 100 | > 100 | > 100 | > 100 |  |  |  |  |  |  |  |  |  |  |
| Cc1c2c(C(N)=O)nccc2c(C)c2c1c1ccccc1n2Cc1ccccc1 | 73.1 | 47 | 62.9 | 61.2 | > 100 | 35.5 | 59 | 28 |  |  |  |  |  |  |  |  |
| C=C1C(O)C2C(=C(C)C13CC3)C(=O)C(C)(C)C2OC (centres undefined) | > 100 |  | > 100 | > 100 | > 100 | > 100 | > 100 | > 100 | 71800 | > 100000 | 53.4 | 38.6 | 41300 | > 100000 | > 100000 |  |
| O=C(N/N=C/c1ccc(O)cc1O)c1cccnc1 | > 100 | > 100 | > 100 | > 100 | 62.6 | > 100 | 45.6 | > 100 | 1760 | 4720 | 3.68 | 3.1 | 4130 | 3590 | 2520 | 3740 |
| O=C1/C(=C/N2N=C(c3ccc4ccccc4c3)CC2c2ccccc2O)SC(=S)N1c1cccnc1 (centres undefined) | > 100 | > 100 | > 100 | > 100 |  | > 100 | > 100 | 8.34 | 1030 | 3060 | 2.29 | 2.46 | 391 |  | 1840 | 616 |
| CC(=O)NC1CONC1=O (centres undefined) |  | > 100 | > 100 | > 100 | > 100 | > 100 | > 100 | > 100 |  |  |  |  |  |  |  |  |
| COc1ccc(/C=C/c2cnccn2)cc1OC | > 10 |  |  |  | > 10 | > 10 | > 10 | > 10 |  |  |  |  |  |  |  |  |
| CN(C)CCNc1nc2ccccc2c2c(=O)c3cc(F)ccc3sc12 | 3.23 |  |  | 5.18 | 3.23 | 3.33 | 2.93 | 2.88 | 1580 | 1680 | 1.47 |  | 2300 | 1790 | 1760 |  |
| COc1ccc(-c2cc(-c3ccc(Nc4ccnc5cc(Cl)ccc45)cc3)nc(N3CCOCC3)n2)cc1 | > 100 | > 100 |  | > 100 |  |  |  | > 100 |  | > 100000 | 7.52 |  | 3790 |  |  | 4800 |
| c1ccc(NCCSc2nc3ccccc3s2)cc1 |  | > 100 | 82.4 | > 100 | > 100 | 77.4 | > 100 | > 100 |  |  |  |  |  |  |  |  |
| COc1cc(/C=C/C(=O)C(C(=O)/C=C/c2ccc(OC(=O)CCNC34CC5CC(CC(C5)C3)C4)c(OC)c2)C(=O)CCNC23CC4CC(CC(C4)C2)C3)ccc1OC(=O)CCNC12CC3CC(CC(C3)C1)C2 (centres undefined) | 3.84 | 4.36 |  | 5.02 | 4.28 | 18.7 | > 100 | 26.5 | 5720 | 1930 | 3.99 |  | 2120 | 1670 | 3770 | 1950 |
| NCCCn1c2c(c3ccccc3c1=O)C(=O)c1ccccc1-2 | 1.01 |  | 0.7 | 0.528 | 3.03 | 4.19 | 0.364 | 0.736 | 43.5 | 68.4 | 0.177 | 0.0363 |  | 842 | 425 |  |
| Cc1cc(NCCCCNc2ccnc3cc(Cl)ccc23)nc(Nc2ccc(C(=O)N3CCCCC3)cc2)n1 | 4.13 |  | 7.13 | 1.04 | 3.37 | 4.13 | 3.47 |  | 1750 | 1820 |  | 1.71 | 239 | 1680 | 2110 |  |
| COc1cc2c3c(n(CCCN(C)CCO)c(=O)c2cc1OC)-c1cc2c(cc1C3=O)OCO2 | > 52.1 |  |  | 8.94 | > 100 | > 100 | > 100 | 49.9 | 936 | 7050 | 14 | < 0.013 | 1450 | > 80200 | 81700 |  |
| N#CC(C#N)=C1CCCOc2c1ccc1ccccc21 | > 100 | 36 | 51 | 65.1 | > 100 | > 100 | > 100 |  | > 100000 | > 100000 |  | 19.5 | 24500 | > 100000 | 42900 | 16700 |
| NC(=O)CNc1ccc([As]=[As]c2ccc(NCC(N)=O)cc2)cc1 (centres undefined) | 29.7 | 9.26 | > 100 | 10.8 | 17.6 |  | 17.9 | 21 | 2410 | 13900 | 3.27 | 9.29 | 2610 | 4010 |  | 1750 |
| Cc1sc2c(c1C)C(c1ccc(Cl)cc1)=N[C@@H](CC(=O)Nc1ccc(OCCOCCOCCOCCNc3cccc4c3C(=O)N(C3CCC(=O)NC3=O)C4=O)cc1)c1nnc(C)n1-2 (some centres undefined) | > 100 |  |  | > 100 | > 100 | > 43.7 |  | > 83.8 |  | 79.6 | < 0.0175 |  | < 17.5 | 16800 | 189 |  |
| C=CCn1c(SCC(=O)Nc2ccc(C(=O)/C=C/c3cc(OC)c(OC)c(OC)c3)cc2)nnc1-c1ccc(OC)cc1 | 0.379 |  | > 100 | 0.68 | 73.8 | 6.18 |  | 29.9 |  | 175 | 0.888 | 0.378 | 202 | 709 | 1600 | 473 |
| Cn1c(=S)c2[nH]c(SCCCc3ccccc3)nc2n(C)c1=O |  | > 100 | > 100 | 92.6 | > 100 | 78.9 | > 100 | > 100 |  |  |  |  |  |  |  |  |
| COc1cc(OC)c2sc(-c3ccc(-n4cncc4-c4cc(OC)c(OC)c(OC)c4)cc3)nc2c1 | > 100 | > 100 | > 100 | > 100 |  | > 100 |  | > 100 |  | > 100000 | 3.51 | 4.24 | 5390 |  | 9400 | 3300 |
